Marks after values point to notes of the source that are not given here.
How the values were obtained:
[1] = Measured or estimated, from references; cited from earlier work
[2] = physchem
Text: (§1) One such molecular property that is used to predict partitioning potential is the octanol—water partition coefficient; Log P, which is the logarithm of the ratio of the solute concentration in the octanol phase to the solute concentration in the water phase, at a defined temperature.

[3] = Encapsulation of hydrophobic compounds into milk fat globules (loading capacity, encapsulation efficiency); format: physicochemical, bovine; settings: for maximal loading capacity (LC): maximal value over 50-2500 μM; for encapsulation efficiency (EE %), maximal/overall value: over tested concentrations
Experimental: Raw milk was procured from a local market and stored at 4° C. Milk was used for up to 4 days post purchase. MFGs were separated from raw milk using centrifugal separation following a modified version of the method by Gallier et al. (2010) (12). First, raw milk was diluted with Milli-Q water at 9:1 water to milk, and the solution was centrifuged at 3,000×g for 5 min using a fixed angle centrifuge rotor. Cream was then skimmed off the sides of the centrifuged tubes after discarding the aqueous phase. In order to remove more of the milk serum components, cream was reconstituted in water to reach 4% w/v, and subjected to another step of centrifugation at 3,000×g for 5 min Cream was collected as detailed prior, then reconstituted to 20% w/v in Milli-Q water. All separation steps were completed at room temperature.
Encapsulation of test compounds in MFGs was accomplished by mixing ethanolic stock solution of a compound with 20% w/v cream suspended in water. The mixture was gently inverted several times to mix, then allowed in incubate in the dark.
To test the effect of incubation temperature on the partitioning and encapsulation yield and efficiency, RA was added at 250 μM concentration and was allowed to incubate with MFGs for 30 min at 4, 22, and 40° C.
To quantify the amount of compound encapsulated in MFGs, cream was separated from ethanol-containing aqueous phase via centrifugal separation at 3,000 x g for 5 min. Cream was skimmed and added to methanol at 50 mg/mL and vortexed vigorously for 1 min, then centrifuged at 16,000×g for 10 min. Top layer of methanol was collected and absorbance was measured at appropriate wavelength for each compound. An absorbance blank was prepared following the same encapsulation and separation steps in the absence of compound. λmax in methanol (nm) for each compound is reported in Table 1.
Cream (20% w/v in Milli-Q water) that was separated following the steps in Example 2 was further separated via centrifugation at 3,000×g for 5 min. Fat content in cream was measured using a modified Folch method (13). An additional washing step was incorporated where the chloroform/water interface was washed with 1:1 water/methanol solution.

[4] = Water/octanol partitioning coefficient, Log P
Text: as §1

[5] = Encapsulation of hydrophobic compounds into milk fat globules (loading capacity, encapsulation efficiency); format: physicochemical, bovine; settings: 250 μM, 1% v/v ethanol, room temperature
[6] = 150 μM added compound, 10% v/v ethanol, 30 min, room temperature
[7] = 200 μM added compound, 10% v/v ethanol, 30 min, room temperature
[8] = 250 μM added compound, 10% v/v ethanol, 30 min, room temperature
[9] = 500 μM added compound, 10% v/v ethanol, 30 min, room temperature
[10] = 1000 μM added compound, 10% v/v ethanol, 30 min, room temperature
[11] = 1500 μM added compound, 10% v/v ethanol, 30 min, room temperature
[12] = 2000 μM added compound, 10% v/v ethanol, 30 min, room temperature
[13] = 2500 μM added compound, 10% v/v ethanol, 30 min, room temperature
[14] = 10% v/v ethanol, 30 min, room temperature
[15] = 1% v/v ethanol, 250 μM, 30 min, room temperature
[16] = 2% v/v ethanol, 250 μM, 30 min, room temperature
[17] = 4% v/v ethanol, 250 μM, 30 min, room temperature
[18] = 4 °C, 30 min, 250 μM, 1% v/v ethanol
[19] = 6% v/v ethanol, 250 μM, 30 min, room temperature
[20] = 8% v/v ethanol, 250 μM, 30 min, room temperature
[21] = 10% v/v ethanol, 250 μM, 30 min, room temperature
[22] = 22 °C, 30 min, 250 μM, 1% v/v ethanol
[23] = 40 °C, 30 min, 250 μM, 1% v/v ethanol
[24] = 40 °C, 30 min, 250 μM, 1% v/v ethanol, listed as RA
[25] = 30 min incubation, 250 μM, 1% v/v ethanol, room temperature

C=CCc1ccc(O)c(OC)c1 [Eugenol]
Water/octanol partitioning coefficient, Log P [1]: 2.61-2.66 ^(18) | logP [2]: ~2.6 | % Encapsulation efficiency [3, 6]: 98.05 ± 4.10% | % Encapsulation efficiency [3, 7]: 95.43 ± 7.46% | % Encapsulation efficiency [3, 8]: 86.64 ± 7.23% | % Encapsulation efficiency [3, 9]: 85.14 ± 6.33% | % Encapsulation efficiency [3, 10]: 80.94 ± 2.42 % | % Encapsulation efficiency [3, 11]: 82.09 ± 134 % | % Encapsulation efficiency [3, 12]: 80.86 ± 2.58 % | % Encapsulation efficiency [3, 13]: 80.71 ± 3.39 % | maximal loading capacity (LC) [3, 14]: 39.65 μg per gram of milk fat | encapsulation efficiency (EE %), maximal/overall value ([3]; 10% v/v ethanol, 30 min): approximately 98%

CC(=O)OC/C=C(C)/C=C/C=C(C)/C=C/C1=C(C)CCCC1(C)C [Retinyl acetate]
Water/octanol partitioning coefficient, Log P [1]: 6.3-9.81 ^(21, 23) | % Encapsulation efficiency ([3]; 50 μM added compound, 10% v/v ethanol, 30 min, room temperature): 107.46 ± 6.29% | % Encapsulation efficiency ([3]; 100 μM added compound, 10% v/v ethanol, 30 min, room temperature): 100.56 ± 3.83% | % Encapsulation efficiency [3, 6]: 111.73 ± 6.32% | % Encapsulation efficiency [3, 7]: 110.33 ± 3.15% | % Encapsulation efficiency [3, 8]: 105.92 ± 4.41% | % Encapsulation efficiency [3, 9]: 76.40 ± 9.65 % | % Encapsulation efficiency [3, 10]: 86.09 ± 12.48 % | % Encapsulation efficiency [3, 11]: 82.14 ± 15.94 % | % Encapsulation efficiency [3, 12]: 76.89 ± 9.88 % | % Encapsulation efficiency [3, 13]: 75.45 ± 5.19 % | % Encapsulation efficiency [3, 15]: 77.86 ± 5.54^ % | Loading capacity [3, 15]: 7.65 ± 0.54^ μg retinyl acetate/g of milk f | Loading capacity ([3]; 1% v/v ethanol, 250 μM, 30 min, room temperature, listed as RA): 7.6 μg retinyl acetate/g of milk f | EE % range with increased ethanol concentration ([3]; 1 to 10% v/v ethanol, 250 μM, 30 min): 78-107% | % Encapsulation efficiency [3, 16]: 83.40 ± 11.73% | Loading capacity [3, 16]: 8.20 ± 1.15^ μg retinyl acetate/g of milk f | % Encapsulation efficiency [3, 17]: 101.24 ± 4.76 % | Loading capacity [3, 17]: 9.95 ± 0.47 μg retinyl acetate/g of milk f | % Encapsulation efficiency [3, 18]: 53.52 ± 3.97 ^a % | Loading capacity [3, 18]: 5.26 ± 0.39 ^a μg retinyl acetate/g of milk f | % Encapsulation efficiency [3, 19]: 106.90 ± 10.93 % | Loading capacity [3, 19]: 10.51 ± 1.07 μg retinyl acetate/g of milk f | % Encapsulation efficiency [3, 20]: 107.65 ± 6.42 % | Loading capacity [3, 20]: 10.58 ± 0.63 μg retinyl acetate/g of milk f | % Encapsulation efficiency [3, 21]: 107.53 ± 5.15 % | Loading capacity [3, 21]: 10.57 ± 0.51 μg retinyl acetate/g of milk f | Loading capacity ([3]; 10% v/v ethanol, 250 μM, 30 min, room temperature, listed as RA): 10.57 μg retinyl acetate/g of milk f | % Encapsulation efficiency [3, 22]: 72.07 ± 3.85 ^b % | Loading capacity [3, 22]: 7.08 ± 0.38 ^b μg retinyl acetate/g of milk f | % Encapsulation efficiency [3, 23]: 124.42 ± 6.52 ^c % | Loading capacity [3, 23]: 12.23 ± 0.64 ^c μg retinyl acetate/g of milk f | % Encapsulation efficiency [3, 24]: 124.42% | Loading capacity [3, 24]: 12.23 μg retinyl acetate/g of milk f | % Encapsulation efficiency ([3]; 10 min incubation, 250 μM, 1% v/v ethanol, room temperature): 52.02 ± 4.66^ % | % Encapsulation efficiency ([3]; 20 min incubation, 250 μM, 1% v/v ethanol, room temperature): 65.66 ± 6.40 % | % Encapsulation efficiency [3, 25]: 76.11 ± 0.89 % | Loading capacity [3, 25]: 7.48 ± 0.09 μg retinyl acetate/g of milk f | % Encapsulation efficiency ([3]; 40 min incubation, 250 μM, 1% v/v ethanol, room temperature): 78.98 ± 5.13 % | Loading capacity ([3]; 50 min incubation, 250 μM, 1% v/v ethanol, room temperature): 8.78 ± 0.46 μg retinyl acetate/g of milk f | % Encapsulation efficiency ([3]; 60 min incubation, 250 μM, 1% v/v ethanol, room temperature): 94.38 ± 2.25 *†‡¥ % | maximal loading capacity (LC) [3, 14]: 74.15 μg per gram of milk fat | encapsulation efficiency (EE %), maximal/overall value ([3]; 10% v/v ethanol, 30 min): ≥ 100% | logP [4]: ~8 | Loading capacity ([5]; 10 min incubation): 5.11 ± 0.46^ μg retinyl acetate/g of milk f | Loading capacity ([5]; 20 min incubation): 6.45 ± 0.63 μg retinyl acetate/g of milk f | Loading capacity ([5]; 40 min incubation): 7.76 ± 0.50 μg retinyl acetate/g of milk f | % Encapsulation efficiency ([5]; 50 min incubation): 89.38 ± 4.66 % | Loading capacity ([5]; 60 min incubation): 9.28 ± 0.22 *†‡¥ μg retinyl acetate/g of milk f | Loading capacity ([5]; 60 min incubation, listed as RA): 9.28 μg retinyl acetate/g of milk f

Reference: patent US20220175675A1, “ENCAPSULATING MOLECULES IN FAT GLOBULES” (The Regents of the University of California, priority 2019, published 2022)
